The record followed here is US20260285875A1, “INHIBITORS OF PARG” (858 Therapeutics, Inc., priority 2023, published 2026).

The target of this assay is T1, cellular PARG (Homo sapiens, UniProt Q86W56).
T1 construct: endogenous in cells; host or cells: HeLa
As to the kind of experiment: Nuclear PAR accumulation assay (immunofluorescence high-content imaging, MMS-treated HeLa cells). It is filed as cell-based. As to conditions: 1 hour compound then MMS 50 μg/mL for an additional hour. The method, boiled down:
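HeLa cells pretreated with compound for 1 h at 37° C, then given 50 μg/mL MMS for another hour. After methanol fixation, PAR was immunostained with DAPI nuclear counterstain; per-nucleus intensity and percent PAR-positive cells were imaged at 20× (≥1,000 cells/well). IC50 from four-parameter logistic fit.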

T1 sequence (Q86W56 whole entry): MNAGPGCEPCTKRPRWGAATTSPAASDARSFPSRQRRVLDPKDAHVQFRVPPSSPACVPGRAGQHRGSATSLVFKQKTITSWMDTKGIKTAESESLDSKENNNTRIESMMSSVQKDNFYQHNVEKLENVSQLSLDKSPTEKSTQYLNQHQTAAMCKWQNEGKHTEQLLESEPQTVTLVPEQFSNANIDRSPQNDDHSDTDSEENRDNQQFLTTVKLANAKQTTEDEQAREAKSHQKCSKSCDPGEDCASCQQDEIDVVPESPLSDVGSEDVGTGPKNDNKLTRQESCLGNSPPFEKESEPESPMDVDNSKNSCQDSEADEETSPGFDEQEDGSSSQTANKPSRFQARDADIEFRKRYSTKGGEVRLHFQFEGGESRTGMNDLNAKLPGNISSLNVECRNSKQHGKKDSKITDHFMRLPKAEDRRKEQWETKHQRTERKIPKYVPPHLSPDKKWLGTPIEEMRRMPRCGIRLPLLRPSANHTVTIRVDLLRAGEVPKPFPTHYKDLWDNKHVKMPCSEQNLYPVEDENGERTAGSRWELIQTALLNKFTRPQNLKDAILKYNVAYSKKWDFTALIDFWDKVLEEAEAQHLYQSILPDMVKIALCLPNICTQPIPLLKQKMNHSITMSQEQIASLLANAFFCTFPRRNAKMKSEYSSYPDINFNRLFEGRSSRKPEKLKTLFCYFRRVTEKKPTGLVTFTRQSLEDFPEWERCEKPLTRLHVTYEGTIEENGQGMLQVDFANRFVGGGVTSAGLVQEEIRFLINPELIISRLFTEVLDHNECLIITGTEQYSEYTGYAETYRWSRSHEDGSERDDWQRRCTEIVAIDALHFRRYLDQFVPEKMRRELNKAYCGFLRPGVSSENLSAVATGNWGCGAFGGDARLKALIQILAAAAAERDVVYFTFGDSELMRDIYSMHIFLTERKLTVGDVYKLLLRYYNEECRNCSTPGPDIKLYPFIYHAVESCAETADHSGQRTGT

On to `[2H]C([2H])(c1cnn(C)c1)N1C(=O)c2cc(S(=O)(=O)NC3(C)CC3)ccc2N2C1=NC[C@H]2C#Cc1cc(C)nn1C` [Example 231, (R)-1-((1,3-dimethyl-1H-pyrazol-5-yl)ethynyl)-4-((1-methyl-1H-pyrazol-4-yl)methyl-d2)-N-(1-methylcyclopropyl)-5-oxo-1,2,4,5-tetrahydroimidazo[1,2-a]quinazoline-7-sulfonamide], for which the IC50 (in general, the concentration needed to halve the response being measured) is less than 100 nM.

`[2H]C([2H])(c1cnn(C)c1)N1C(=O)c2cc(S(=O)(=O)NC3(C)CC3)ccc2N2C1=NC[C@H]2C#Cc1cn(C)nc1C` [Example 232, (R)-1-((1,3-dimethyl-1H-pyrazol-4-yl)ethynyl)-4-((1-methyl-1H-pyrazol-4-yl)methyl-d2)-N-(1-methylcyclopropyl)-5-oxo-1,2,4,5-tetrahydroimidazo[1,2-a]quinazoline-7-sulfonamide] gave an IC50 of less than 100 nM. The value for `C[C@@H]1CN=C2N(Cc3ccc(C#N)nc3)C(=O)c3cc(S(=O)(=O)NC4(C)CC4)ccc3N21` [Example 233, (R)-4-((6-cyanopyridin-3-yl)methyl)-1-methyl-N-(1-methylcyclopropyl)-5-oxo-1,2,4,5-tetrahydroimidazo[1,2-a]quinazoline-7-sulfonamide] was less than 100 nM; that for `[2H]C([2H])(c1cnn(C)c1)N1C(=O)c2cc(S(=O)(=O)NC3(C)CC3)c(N)cc2N2C1=N[C@H]1CCC[C@H]12` [Example 234, (7aS,10aR)-2-amino-6-((1-methyl-1H-pyrazol-4-yl)methyl-d2)-N-(1-methylcyclopropyl)-5-oxo-6,7a,8,9,10,10a-hexahydro-5H-cyclopenta[4,5]imidazo[1,2-a]quinazoline-3-sulfonamide] was less than 100 nM; that for `C[C@@H]1C[C@H](C)N2C(=N1)N(Cc1cnn(C)c1)C(=O)c1cc(S(=O)(=O)NC3(C)CC3)ccc12` [Example 235, (1S,3R)-1,3-dimethyl-5-((1-methyl-1H-pyrazol-4-yl)methyl)-N-(1-methylcyclopropyl)-6-oxo-2,3,5,6-tetrahydro-1H-pyrimido[1,2-a]quinazoline-8-sulfonamide] was 100 to 1000 nM. In the case of `C[C@@H]1C[C@@H](C)N2C(=N1)N(Cc1cnn(C)c1)C(=O)c1cc(S(=O)(=O)NC3(C)CC3)ccc12` [Example 236, (1R,3R)-1,3-dimethyl-5-((1-methyl-1H-pyrazol-4-yl)methyl)-N-(1-methylcyclopropyl)-6-oxo-2,3,5,6-tetrahydro-1H-pyrimido[1,2-a]quinazoline-8-sulfonamide], the concentration for half-maximal inhibition (IC50) is less than 100 nM. Compound `[2H]C([2H])(c1cnn(C)c1)N1C(=O)c2cc(S(=O)(=O)NC3(CO)CC3)ccc2N2C1=NC[C@H]2C` [Example 237, (R)-N-(1-(hydroxymethyl)cyclopropyl)-1-methyl-4-((1-methyl-1H-pyrazol-4-yl)methyl-d2)-5-oxo-1,2,4,5-tetrahydroimidazo[1,2-a]quinazoline-7-sulfonamide] returned an IC50 of 1000 to 10000 nM. The compound `Cc1cc(C#C[C@@H]2CN=C3N(Cc4cnn(C)c4)C(=O)c4cc(S(=O)(=O)NC5(C)CC5)ccc4N32)ccn1` [Example 238, (R)-4-((1-methyl-1H-pyrazol-4-yl)methyl)-N-(1-methylcyclopropyl)-1-((2-methylpyridin-4-yl)ethynyl)-5-oxo-1,2,4,5-tetrahydroimidazo[1,2-a]quinazoline-7-sulfonamide] showed an IC50 of less than 100 nM.

Consider `C[C@@H]1CN=C2N(Cc3ccnc(C#N)c3)C(=O)c3cc(S(=O)(=O)NC4(C)CC4)ccc3N21` [Example 239, (R)-4-((2-cyanopyridin-4-yl)methyl)-1-methyl-N-(1-methylcyclopropyl)-5-oxo-1,2,4,5-tetrahydroimidazo[1,2-a]quinazoline-7-sulfonamide], for which the IC50 fell in the range of 100 to 1000 nM. The value for `[2H]C([2H])(c1cnn(C)c1)N1C(=O)c2cc(S(=O)(=O)NC3(C)CC3)c(SC)cc2N2C1=N[C@H]1CCC[C@H]12` [Example 240, (7aS,10aR)-6-((1-methyl-1H-pyrazol-4-yl)methyl-d2)-N-(1-methylcyclopropyl)-2-(methylthio)-5-oxo-6,7a,8,9,10,10a-hexahydro-5H-cyclopenta[4,5]imidazo[1,2-a]quinazoline-3-sulfonamide] was 100 to 1000 nM; that for `[2H]C([2H])(c1cnn(C)c1)N1C(=O)c2cc(S(=O)(=O)NC3(C)CC3)ccc2N2C1=NC[C@H]2C#CC1(N(CC)CC)CC1` [Example 241, (R)-1-((1-(diethylamino)cyclopropyl)ethynyl)-4-((1-methyl-1H-pyrazol-4-yl)methyl-d2)-N-(1-methylcyclopropyl)-5-oxo-1,2,4,5-tetrahydroimidazo[1,2-a]quinazoline-7-sulfonamide] was less than 100 nM; that for `[2H]C([2H])(c1cnn(C)c1)N1C(=O)c2cc(S(=O)(=O)NC3(C)CC3)ccc2N2C1=NC[C@H]2C#Cc1ncccc1C` [Example 242, (R)-4-((1-methyl-1H-pyrazol-4-yl)methyl-d2)-N-(1-methylcyclopropyl)-1-((3-methylpyridin-2-yl)ethynyl)-5-oxo-1,2,4,5-tetrahydroimidazo[1,2-a]quinazoline-7-sulfonamide] was less than 100 nM. The value for `C[C@@H]1CN=C2N(Cc3cn(C)nc3CC#N)C(=O)c3cc(S(=O)(=O)NC4(C)CC4)ccc3N21` [Example 243, (R)-4-((3-(cyanomethyl)-1-methyl-1H-pyrazol-4-yl)methyl)-1-methyl-N-(1-methylcyclopropyl)-5-oxo-1,2,4,5-tetrahydroimidazo[1,2-a]quinazoline-7-sulfonamide] was less than 100 nM. In turn, `[2H]C([2H])(c1cnn(C)c1)N1C(=O)c2cc(S(=O)(=O)NC3(C)CC3)ccc2N2C1=NC[C@H]2C#CC1(N(C)CCO)CC1` [Example 244, (R)-1-((1-((2-hydroxyethyl)(methyl)amino)cyclopropyl)ethynyl)-4-((1-methyl-1H-pyrazol-4-yl)methyl-d2)-N-(1-methylcyclopropyl)-5-oxo-1,2,4,5-tetrahydroimidazo[1,2-a]quinazoline-7-sulfonamide] returned an IC50 of less than 100 nM. Take `CCN1C(=O)c2cc(S(=O)(=O)NC3(C)CC3)ccc2N2C1=NC[C@H]2C#Cc1c(F)cnn1C` [Example 245, (R)-4-ethyl-1-((4-fluoro-1-methyl-1H-pyrazol-5-yl)ethynyl)-N-(1-methylcyclopropyl)-5-oxo-1,2,4,5-tetrahydroimidazo[1,2-a]quinazoline-7-sulfonamide]: the IC50 is less than 100 nM. Compound `[2H]C([2H])(c1cnn(C)c1)N1C(=O)c2cc(S(=O)(=O)NC3(C)CC3)ccc2N2C1=NC[C@H]2C#Cc1cncnc1` [Example 246, (R)-4-((1-methyl-1H-pyrazol-4-yl)methyl-d2)-N-(1-methylcyclopropyl)-5-oxo-1-(pyrimidin-5-ylethynyl)-1,2,4,5-tetrahydroimidazo[1,2-a]quinazoline-7-sulfonamide] returned an IC50 of less than 100 nM. In the case of `C[C@@H]1CN=C2N(Cc3cccnc3CC#N)C(=O)c3cc(S(=O)(=O)NC4(C)CC4)ccc3N21` [Example 247, (R)-4-((2-(cyanomethyl)pyridin-3-yl)methyl)-1-methyl-N-(1-methylcyclopropyl)-5-oxo-1,2,4,5-tetrahydroimidazo[1,2-a]quinazoline-7-sulfonamide] it was 100 to 1000 nM; in that of `Cn1cc(CN2C(=O)c3cc(S(=O)(=O)NC4(C)CC4)ccc3N3C2=NC[C@H]3C#C[C@H]2CCCN2)cn1` [Example 248, (R)-4-((1-methyl-1H-pyrazol-4-yl)methyl)-N-(1-methylcyclopropyl)-5-oxo-1-(((R)-pyrrolidin-2-yl)ethynyl)-1,2,4,5-tetrahydroimidazo[1,2-a]quinazoline-7-sulfonamide], 100 to 1000 nM. The value for `[2H]C([2H])(c1cnn(C)c1)N1C(=O)c2cc(S(=O)(=O)NC3(C)CC3)ccc2N2C1=NC[C@H]2C#Cc1nccnc1OC` [Example 249, (R)-1-((3-methoxypyrazin-2-yl)ethynyl)-4-((1-methyl-1H-pyrazol-4-yl)methyl-d2)-N-(1-methylcyclopropyl)-5-oxo-1,2,4,5-tetrahydroimidazo[1,2-a]quinazoline-7-sulfonamide] was less than 100 nM; that for `[2H]C([2H])(c1cnn(C)c1)N1C(=O)c2cc(S(=O)(=O)NC3(C)CC3)ccc2N2C1=NC[C@H]2C#Cc1cccnc1N` [Example 250, (R)-1-((2-aminopyridin-3-yl)ethynyl)-4-((1-methyl-1H-pyrazol-4-yl)methyl-d2)-N-(1-methylcyclopropyl)-5-oxo-1,2,4,5-tetrahydroimidazo[1,2-a]quinazoline-7-sulfonamide] was less than 100 nM. In the case of `[2H]C([2H])(c1cnn(C)c1)N1C(=O)c2cc(S(=O)(=O)NC3(C)CC3)ccc2N2C1=NC[C@H]2C#Cc1ncc(C)nc1C` [Example 251, (R)-1-((3,5-dimethylpyrazin-2-yl)ethynyl)-4-((1-methyl-1H-pyrazol-4-yl)methyl-d2)-N-(1-methylcyclopropyl)-5-oxo-1,2,4,5-tetrahydroimidazo[1,2-a]quinazoline-7-sulfonamide] it was less than 100 nM.

Turning to `[2H]C([2H])(c1cnn(C)c1)N1C(=O)c2cc(S(=O)(=O)NC3(C)CC3)ccc2N2C1=NC[C@H]2C#Cc1cncc(N)c1` [Example 252, (R)-1-((5-aminopyridin-3-yl)ethynyl)-4-((1-methyl-1H-pyrazol-4-yl)methyl-d2)-N-(1-methylcyclopropyl)-5-oxo-1,2,4,5-tetrahydroimidazo[1,2-a]quinazoline-7-sulfonamide], the IC50 was less than 100 nM. In the case of `[2H]C([2H])(c1cnn(C)c1)N1C(=O)c2cc(S(=O)(=O)NC3(C)CC3)ccc2N2C1=NC[C@H]2C#Cc1cncc(N(C)C)c1` [Example 253, (R)-1-((5-(dimethylamino)pyridin-3-yl)ethynyl)-4-((1-methyl-1H-pyrazol-4-yl)methyl-d2)-N-(1-methylcyclopropyl)-5-oxo-1,2,4,5-tetrahydroimidazo[1,2-a]quinazoline-7-sulfonamide] it was less than 100 nM; in that of `C=Cc1ccc(CN2C(=O)c3cc(S(=O)(=O)NC4(C)CC4)ccc3N3C2=NC[C@H]3C)cn1` [Example 254, (R)-1-methyl-N-(1-methylcyclopropyl)-5-oxo-4-((6-vinylpyridin-3-yl)methyl)-1,2,4,5-tetrahydroimidazo[1,2-a]quinazoline-7-sulfonamide], 100 to 1000 nM.
